{"source": "patent US10077243B2", "about": "“Compounds for treating disorders mediated by metabotropic glutamate receptor 5, and methods of use thereof” (Sunovion Pharmaceuticals Inc., priority 2009, dated 2018)", "target": "T1, human mGluR5 (Homo sapiens, UniProt P41594)", "T1 construct": "expressed in transfected cells; host or cells: HEK293 cells stably expressing rat GLAST (EAAT1), stably transfected with pcDNAzeo3.1 carrying synthetic human mGluR5 DNA; zeocin-selected single clones", "T1 sequence (P41594 21-1212)": "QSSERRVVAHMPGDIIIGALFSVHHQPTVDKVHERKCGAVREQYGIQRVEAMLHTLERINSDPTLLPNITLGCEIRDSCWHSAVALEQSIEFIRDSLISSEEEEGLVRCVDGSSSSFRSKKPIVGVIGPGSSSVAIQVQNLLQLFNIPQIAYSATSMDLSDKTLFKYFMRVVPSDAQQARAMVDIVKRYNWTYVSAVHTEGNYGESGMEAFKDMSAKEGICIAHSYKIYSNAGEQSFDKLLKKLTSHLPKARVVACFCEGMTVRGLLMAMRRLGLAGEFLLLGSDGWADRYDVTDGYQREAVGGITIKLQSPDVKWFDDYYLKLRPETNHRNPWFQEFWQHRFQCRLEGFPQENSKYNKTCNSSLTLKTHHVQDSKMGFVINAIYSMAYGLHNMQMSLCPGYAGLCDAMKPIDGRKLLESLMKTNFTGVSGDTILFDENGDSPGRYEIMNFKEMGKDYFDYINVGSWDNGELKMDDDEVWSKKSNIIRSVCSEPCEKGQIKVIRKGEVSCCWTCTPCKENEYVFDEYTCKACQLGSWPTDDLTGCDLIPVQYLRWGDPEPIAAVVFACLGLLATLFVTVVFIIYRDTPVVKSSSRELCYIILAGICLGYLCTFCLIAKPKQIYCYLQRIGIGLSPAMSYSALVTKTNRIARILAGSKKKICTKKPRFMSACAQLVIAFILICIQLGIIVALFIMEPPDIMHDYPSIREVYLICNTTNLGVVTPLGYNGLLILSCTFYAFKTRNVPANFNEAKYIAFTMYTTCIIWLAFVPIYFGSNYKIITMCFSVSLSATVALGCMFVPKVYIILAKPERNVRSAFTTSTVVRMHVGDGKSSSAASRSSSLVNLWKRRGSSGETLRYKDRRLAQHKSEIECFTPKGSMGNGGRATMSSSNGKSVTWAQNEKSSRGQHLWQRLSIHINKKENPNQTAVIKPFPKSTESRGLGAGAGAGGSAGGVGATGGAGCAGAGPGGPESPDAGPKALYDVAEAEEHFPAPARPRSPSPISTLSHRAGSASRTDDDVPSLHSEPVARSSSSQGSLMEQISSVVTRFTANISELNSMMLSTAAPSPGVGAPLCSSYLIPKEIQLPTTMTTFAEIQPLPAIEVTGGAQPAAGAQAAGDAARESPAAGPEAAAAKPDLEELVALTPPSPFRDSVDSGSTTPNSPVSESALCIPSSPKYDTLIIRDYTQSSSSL", "experiment": "In vitro cell-based FLIPR calcium assay for positive modulation of the activation of mGluR5 by glutamate (PAM EC50)", "conditions": "FLIPR calcium signal, glutamate added at its EC20", "procedure,_shortened": "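HEK293/GLAST cells stably expressing mGluR5 were loaded with calcium-sensitive dye (25 °C, 45–60 min) in HBSS/20 mM HEPES. Test compounds were assayed in buffer containing glutamate at that day's EC20, with FLIPR fluorescence recorded. Controls contained 0.3% DMSO without compound.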", "key": {"[1]": {"conditions": "HEK293/GLAST cells expressing recombinant human mGluR5, read-out: mGluR5 PAM EC50"}}, "note": "pEC50: −log10 of the molar value. Read-outs that look alike come from different tables or passages of the source.", "data": [{"molecule": "CC1(C)CCn2c(nc3nc(C#Cc4ccccn4)ccc3c2=O)C1", "note": "[Example 12.2, 9,9-dimethyl-2-(pyridin-2-ylethynyl)-7,8,9,10-tetrahydro-5H-dipyrido[1,2-a:2′,3′-d]pyrimidin-5-one]", "values": [{"measurement": "pEC50", "setting": "[1]", "value": "7.00 to 7.52"}]}, {"molecule": "CC1(C)CCc2nc3nc(C#Cc4ccccn4)ccc3c(=O)n2C1", "note": "[Example 12.3, 8,8-dimethyl-2-(pyridin-2-ylethynyl)-7,8,9,10-tetrahydro-5H-dipyrido[1,2-a:2′,3′-d]pyrimidin-5-one]", "values": [{"measurement": "pEC50", "setting": "[1]", "value": "7.00 to 7.52"}]}, {"molecule": "O=c1c2ccc(C#Cc3ccccn3)nc2nc2n1CCCCC2", "note": "[Example 12.5, 2-(pyridin-2-ylethynyl)-8,9,10,11-tetrahydropyrido[2′,3′:4,5]pyrimido[1,2-a]azepin-5(7H)-one]", "values": [{"measurement": "pEC50", "setting": "[1]", "value": "6.00 to 6.52"}]}, {"molecule": "CC(O)c1cnc2cc(C#Cc3cccc(F)c3)ccn2c1=O", "note": "(centres unmarked) [Example 13.1, 8-((3-fluorophenyl)ethynyl)-3-(1-hydroxyethyl)-4H-pyrido[1,2-a]pyrimidin-4-one]", "values": [{"measurement": "pEC50", "setting": "[1]", "value": "6.52 to 7.00"}]}, {"molecule": "CCOC(C)c1cnc2cc(C#Cc3cccc(F)c3)ccn2c1=O", "note": "(centres unmarked) [Example 13.2, 3-(1-ethoxyethyl)-8-((3-fluorophenyl)ethynyl)-4H-pyrido[1,2-a]pyrimidin-4-one]", "values": [{"measurement": "pEC50", "setting": "[1]", "value": "> 8.00"}]}, {"molecule": "CCNC(=O)c1cnc2cc(C#Cc3cccc(F)c3)ccn2c1=O", "note": "[Example 13.5, N-ethyl-8-((3-fluorophenyl)ethynyl)-4-oxo-4H-pyrido[1,2-a]pyrimidine-3-carboxamide]", "values": [{"measurement": "pEC50", "setting": "[1]", "value": "7.52 to 8.00"}]}, {"molecule": "O=c1c(CO)cnc2cc(C#Cc3cccc(F)c3)ccn12", "note": "[Example 13.6, 8-((3-fluorophenyl)ethynyl)-3-(hydroxymethyl)-4H-pyrido[1,2-a]pyrimidin-4-one]", "values": [{"measurement": "pEC50", "setting": "[1]", "value": "6.00 to 6.52"}]}, {"molecule": "COCc1cnc2cc(C#Cc3cccc(F)c3)ccn2c1=O", "note": "[Example 13.7, 8-((3-fluorophenyl)ethynyl)-3-(methoxymethyl)-4H-pyrido[1,2-a]pyrimidin-4-one]", "values": [{"measurement": "pEC50", "setting": "[1]", "value": "7.00 to 7.52"}]}, {"molecule": "CCOCc1cnc2cc(C#Cc3cccc(F)c3)ccn2c1=O", "note": "[Example 13.8, 3-(ethoxymethyl)-8-((3-fluorophenyl)ethynyl)-4H-pyrido[1,2-a]pyrimidin-4-one]", "values": [{"measurement": "pEC50", "setting": "[1]", "value": "7.00 to 7.52"}]}, {"molecule": "COCCc1cnc2cc(C#Cc3cccc(F)c3)ccn2c1=O", "note": "[Example 13.10, 8-((3-fluorophenyl)ethynyl)-3-(2-methoxyethyl)-4H-pyrido[1,2-a]pyrimidin-4-one]", "values": [{"measurement": "pEC50", "setting": "[1]", "value": "7.52 to 8.00"}]}, {"molecule": "COCCc1cnc2cc(C#Cc3ccc(F)cc3)ccn2c1=O", "note": "[Example 13.11, 8-((4-fluorophenyl)ethynyl)-3-(2-methoxyethyl)-4H-pyrido[1,2-a]pyrimidin-4-one]", "values": [{"measurement": "pEC50", "setting": "[1]", "value": "7.52 to 8.00"}]}, {"molecule": "CCOCCc1cnc2cc(C#Cc3cccc(F)c3)ccn2c1=O", "note": "[Example 13.13, 3-(2-ethoxyethyl)-8-((3-fluorophenyl)ethynyl)-4H-pyrido[1,2-a]pyrimidin-4-one]", "values": [{"measurement": "pEC50", "setting": "[1]", "value": "7.00 to 7.52"}]}, {"molecule": "CC(C)(O)c1cnc2cc(C#Cc3cccc(F)c3)ccn2c1=O", "note": "[Example 13.18, 8-((3-fluorophenyl)ethynyl)-3-(2-hydroxypropan-2-yl)-4H-pyrido[1,2-a]pyrimidin-4-one]", "values": [{"measurement": "pEC50", "setting": "[1]", "value": "6.52 to 7.00"}]}, {"molecule": "O=c1c2c(nc3cc(C#Cc4ccccn4)ccn13)CCCC2", "note": "[Example 15.1, 7-(pyridin-2-ylethynyl)-3,4-dihydro-1H-pyrido[2,1-b]quinazolin-11(2H)-one]", "values": [{"measurement": "pEC50", "setting": "[1]", "value": "7.00 to 7.52"}]}, {"molecule": "CC1CCc2c(nc3cc(C#Cc4ccccn4)ccn3c2=O)C1", "note": "(centres unmarked) [Example 15.2, 3-methyl-7-(pyridin-2-ylethynyl)-3,4-dihydro-1H-pyrido[2,1-b]quinazolin-11(2H)-one]", "values": [{"measurement": "pEC50", "setting": "[1]", "value": "> 8.00"}]}, {"molecule": "CC1(C)CCc2c(nc3cc(C#Cc4ccccn4)ccn3c2=O)C1", "note": "[Example 15.3, 3,3-dimethyl-7-(pyridin-2-ylethynyl)-3,4-dihydro-1H-pyrido[2,1-b]quinazolin-11(2H)-one]", "values": [{"measurement": "pEC50", "setting": "[1]", "value": "> 8.00"}]}, {"molecule": "CC1(C)CCc2nc3cc(C#Cc4ccccn4)ccn3c(=O)c2C1", "note": "[Example 15.4, 2,2-dimethyl-7-(pyridin-2-ylethynyl)-3,4-dihydro-1H-Pyrido[2,1-b]quinazolin-11(2H)-one]", "values": [{"measurement": "pEC50", "setting": "mGluR5 PAM EC50, HEK293/GLAST cells expressing recombinant human mGluR5", "value": "> 8.00"}]}, {"molecule": "N#CCN1CCc2nc3cc(C#Cc4ccccn4)ccn3c(=O)c2C1", "note": "[Example 15.6, 2-(11-oxo-7-(pyridin-2-ylethynyl)-3,4-dihydro-1H-dipyrido[1,2-a:4′,3′-d]pyrimidin-2(11H)-yl)acetonitrile]", "values": [{"measurement": "pEC50", "setting": "[1]", "value": "6.00 to 6.52"}]}, {"molecule": "O=c1c2c(nc3cc(C#Cc4ccccn4)ccn13)C[C@@H]1CCCN1C2", "note": "[Example 15.7, (S)-10-(pyridin-2-ylethynyl)-2,3,13,13a-tetrahydro-1H-pyrido[1′,2′:1,2]pyrimido[5,4-f]indolizin-6(5H)-one]", "values": [{"measurement": "pEC50", "setting": "[1]", "value": "6.00 to 6.52"}]}, {"molecule": "O=c1c2c(nc3cc(C#Cc4ccc(F)cc4)ccn13)CCCCC2", "note": "[Example 16.1, 3-((4-fluorophenyl)ethynyl)-7,8,9,10-tetrahydrocyclohepta[d]pyrido[1,2-a]pyrimidin-11(6H)-one]", "values": [{"measurement": "pEC50", "setting": "[1]", "value": "> 8.00"}]}, {"molecule": "O=c1c2c(nc3cc(C#Cc4ccccc4)ccn13)CCCCC2", "note": "[Example 16.2, 3-(phenylethynyl)-7,8,9,10-tetrahydrocyclohepta[d]pyrido[1,2-a]pyrimidin-11(6H)-one]", "values": [{"measurement": "pEC50", "setting": "[1]", "value": "> 8.00"}]}, {"molecule": "O=c1c2c(nc3cc(C#Cc4ccccn4)ccn13)CCCCC2", "note": "[Example 16.3, 3-(pyridin-2-ylethynyl)-7,8,9,10-tetrahydrocyclohepta[d]pyrido[1,2-a]pyrimidin-11(6H)-one]", "values": [{"measurement": "pEC50", "setting": "[1]", "value": "> 8.00"}]}, {"molecule": "O=c1c2c(nc3cc(C#Cc4cccnc4)ccn13)CCCCC2", "note": "[Example 16.4, 3-(pyridin-3-ylethynyl)-7,8,9,10-tetrahydrocyclohepta[d]pyrido[1,2-a]pyrimidin-11(6H)-one]", "values": [{"measurement": "pEC50", "setting": "[1]", "value": "> 8.00"}]}, {"molecule": "O=c1c2c(nc3cc(C#Cc4ccncc4)ccn13)CCCCC2", "note": "[Example 16.5, 3-(pyridin-4-ylethynyl)-7,8,9,10-tetrahydrocyclohepta[d]pyrido[1,2-a]pyrimidin-11(6H)-one]", "values": [{"measurement": "pEC50", "setting": "[1]", "value": "> 8.00"}]}, {"molecule": "CC1CCc2nc3cc(C#Cc4ccccn4)ccn3c(=O)c2CC1", "note": "(centres unmarked) [Example 16.6, 8-methyl-3-(pyridin-2-ylethynyl)-7,8,9,10-tetrahydrocyclohepta[d]pyrido[1,2-a]pyrimidin-11(6H)-one]", "values": [{"measurement": "pEC50", "setting": "[1]", "value": "> 8.00"}]}, {"molecule": "CN1CCc2nc3cc(C#Cc4ccc(F)cc4)ccn3c(=O)c2CC1", "note": "[Example 16.7, 8-((4-fluorophenyl)ethynyl)-3-methyl-2,3,4,5-tetrahydropyrido[1′,2′:1,2]pyrimido[4,5-d]azepin-12(1H)-one]", "values": [{"measurement": "pEC50", "setting": "[1]", "value": "6.00 to 6.52"}]}, {"molecule": "O=c1c2c(nc3cc(C#Cc4ccccc4)ccn13)CCCCCC2", "note": "[Example 17.1, 3-(phenylethynyl)-8,9,10,11-tetrahydro-6H-cycloocta[d]pyrido[1,2-a]pyrimidin-12(7H)-one]", "values": [{"measurement": "pEC50", "setting": "[1]", "value": "> 8.00"}]}, {"molecule": "O=c1c2c(nc3cc(C#Cc4ccccn4)ccn13)CCCCCC2", "note": "[Example 17.2, 3-(pyridin-2-ylethynyl)-8,9,10,11-tetrahydro-6H-cycloocta[d]pyrido[1,2-a]pyrimidin-12(7H)-one]", "values": [{"measurement": "pEC50", "setting": "[1]", "value": "> 8.00"}]}, {"molecule": "O=c1c2c(nc3cc(C#Cc4cccnc4)ccn13)CCCCCC2", "note": "[Example 17.3, 3-(pyridin-3-ylethynyl)-8,9,10,11-tetrahydro-6H-cycloocta[d]pyrido[1,2-a]pyrimidin-12(7H)-one]", "values": [{"measurement": "pEC50", "setting": "[1]", "value": "> 8.00"}]}, {"molecule": "O=c1c2c(nc3cc(C#Cc4ccncc4)ccn13)CCCCCC2", "note": "[Example 17.4, 3-(pyridin-4-ylethynyl)-8,9,10,11-tetrahydro-6H-cycloocta[d]pyrido[1,2-a]pyrimidin-12(7H)-one]", "values": [{"measurement": "pEC50", "setting": "[1]", "value": "> 8.00"}]}, {"molecule": "O=c1c2c(nc3cc(C#Cc4ccc(F)cc4)ccn13)CCCCCC2", "note": "[Example 17.5, 3-((4-fluorophenyl)ethynyl)-8,9,10,11-tetrahydro-6H-cycloocta[d]pyrido[1,2-a]pyrimidin-12(7H)-one]", "values": [{"measurement": "pEC50", "setting": "[1]", "value": "> 8.00"}]}, {"molecule": "O=c1[nH]ccc2cc(C#Cc3cccc(F)c3)ccc12", "note": "[Example 18.1, 6-((3-fluorophenyl)ethynyl)isoquinolin-1(2H)-one]", "values": [{"measurement": "pEC50", "setting": "[1]", "value": "6.00 to 6.52"}]}, {"molecule": "CCCn1ccc2cc(C#Cc3ccc(F)cc3)ccc2c1=O", "note": "[Example 18.2, 6-((4-fluorophenyl)ethynyl)-2-propylisoquinolin-1 (2H)-one]", "values": [{"measurement": "pEC50", "setting": "[1]", "value": "6.00 to 6.52"}]}, {"molecule": "Fc1ccc(C#Cc2ccc3c(c2)N=C2CCCCCN2C3)cc1", "note": "[Example 19.1, 3-((4-fluorophenyl)ethynyl)-6,7,8,9,10,12-hexahydroazepino[2,1-b]quinazoline]", "values": [{"measurement": "pEC50", "setting": "[1]", "value": "7.00 to 7.52"}]}, {"molecule": "O=c1c2ccc(/C=C/c3ccccc3)cc2nc2n1CCCCC2", "note": "[Example 20.2, (E)-3-styryl-7,8,9,10-tetrahydroazepino[2,1-b]quinazolin-12(6H)-one]", "values": [{"measurement": "pEC50", "setting": "[1]", "value": "> 8.00"}]}, {"molecule": "CC1CCc2nc3cc(/C=C/c4ccccn4)ccc3c(=O)n2CC1", "note": "(centres unmarked) [Example 20.3, (E)-8-methyl-3-(2-(pyridin-2-yl)vinyl)-7,8,9,10-tetrahydroazepino[2,1-b]quinazolin-12(6H)-one]", "values": [{"measurement": "pEC50", "setting": "[1]", "value": "6.52 to 7.00"}]}, {"molecule": "CC1Cc2nc3cc(/C=C/c4ccccc4)ccc3c(=O)n2C1", "note": "(centres unmarked) [Example 20.4, (E)-2-methyl-6-styryl-2,3-dihydropyrrolo[2,1-b]quinazolin-9(1H)-one]", "values": [{"measurement": "pEC50", "setting": "[1]", "value": "7.00 to 7.52"}]}, {"molecule": "CC1(C)CCn2c(nc3cc(/C=C/c4ccccc4F)ccc3c2=O)C1", "note": "[Example 20.6, (E)-3-(2-fluorostyryl)-7,7-dimethyl-8,9-dihydro-6H-pyrido[2,1-b]quinazolin-11(7H)-one]", "values": [{"measurement": "pEC50", "setting": "[1]", "value": "7.00 to 7.52"}]}, {"molecule": "CC1(C)CCn2c(nc3cc(/C=C/c4ccccn4)ccc3c2=O)C1", "note": "[Example 20.7]", "values": [{"measurement": "pEC50", "setting": "[1]", "value": "7.52 to 8.00"}]}, {"molecule": "CC1(C)CCn2c(nc3cc(/C=C/c4cccc(C#N)n4)ccc3c2=O)C1", "note": "[Example 20.9, (E)-6-(2-(7,7-dimethyl-11-oxo-7,8,9,11-tetrahydro-6H-pyrido[2,1-b]quinazolin-3-yl)vinyl)picolinonitrile]", "values": [{"measurement": "pEC50", "setting": "[1]", "value": "6.52 to 7.00"}]}, {"molecule": "O=c1c2ccc(/C=C/c3ccccn3)cc2nc2n1CCCCC2", "note": "[Example 20.10, (E)-3-(2-(pyridin-2-yl)vinyl)-7,8,9,10-tetrahydroazepino[2,1-b]quinazolin-12(6H)-one]", "values": [{"measurement": "pEC50", "setting": "[1]", "value": "7.00 to 7.52"}]}]}
